The values below come from ChEMBL document CHEMBL5346928, “Discovery of orally effective and safe GPR40 agonists by incorporating a chiral, rigid and polar sulfoxide into β-position to the carboxylic acid” (Eur J Med Chem, 2023).

What is called EC50 is the midpoint of the concentration-response curve. What is called half-life is the time in which the quantity being followed falls by half. The term Cmax denotes the highest concentration seen after dosing. In general, AUC(0-t) refers to exposure summed from dosing to a finite time, without extrapolation to infinity. In general, MRT last refers to a mean duration of stay, worked out from the concentration-time curve. In general, bioavailability refers to the share of a dose that reaches the circulation, judged against a reference dose that is usually intravenous. Read a low bioavailability as little systemic uptake. A word on the Tmax: it is the time at which the peak concentration occurs.

The structures appear in SMILES notation.

In series [1] the target is GPR40-Galpha16 (Homo sapiens, UniProt O14842+P30679). Kind of series: Agonist activity at human GPR40/Galpha-16 expressed in HEK293 cells by Fluo4-AM dye based intracellular calcium flux assay. It is filed as cell-based.
Series [2] has as its target Free fatty acid receptor 1 (Homo sapiens, UniProt O14842). The experiment in a line: Agonist activity at human GPR40 expressed in HEK293 cells by Fluo4-AM dye based intracellular calcium flux assay. It is filed as functional, cell-based.
Series [3] in a line: Inhibition of bile acid efflux in Sprague-Dawley rat hepatocytes assessed as decrease in biliary excretion index incubated for 15 mins followed by compound washout for 15 mins and subsequent addition of compounds with d8-TCA measured after 15 mins by LC-MS/MS analysis. It is filed as toxicity, cell-based, Hepatocyte. The following applies: 0.5 h, at 5 to 25 µM, dose 5-25 µM, time 30 min.

The nature of series [4]: Metabolic stability in rat liver microsomes assessed as half life. Format: ADME, Microsome. In general terms: Liver microsomes are a subcellular fraction often used to study metabolism.
Series [5] can be described thus: Metabolic stability in rat liver microsomes assessed as intrinsic clearance. It is filed as ADME, Microsome. The note with it: read-out: CLH.
A short description of series [6]: Metabolic stability in human liver microsomes assessed as half life. Format: ADME, Microsome.
Series [7] is described as follows: Metabolic stability in human liver microsomes assessed as intrinsic clearance. Format: ADME, Microsome.
Series [8] in a line: Cmax in Sprague-Dawley rat at 1 mg/kg, iv by LC-MS analysis. It is filed as ADME, organism-based. More on the design: dose 1 mg/kg, route iv. The note with it: in vivo.
Series [9] in a line: AUC (0 to t) in Sprague-Dawley rat at 1 mg/kg, iv by LC-MS analysis. Format: ADME, organism-based. More on the design: dose 1 mg/kg, route iv. The note with it: in vivo.
The nature of series [10]: Half life in Sprague-Dawley rat at 1 mg/kg, iv by LC-MS analysis. Format: ADME, organism-based. The note with it: in vivo.
Series [11] can be described thus: MRTlast in Sprague-Dawley rat at 1 mg/kg, iv by LC-MS analysis. It is filed as ADME, organism-based. The note with it: in vivo.
Series [12] is described as follows: Oral bioavailability in Sprague-Dawley rat […] by LC-MS analysis. The note with it: in vivo. Format: ADME, organism-based.
Series [13] is described as follows: Cmax in Sprague-Dawley rat at 10 mg/kg, po by LC-MS analysis. It is filed as ADME, organism-based. More on the design: dose 10 mg/kg, route po. The following applies: in vivo.
Series [14] in a line: AUC (0 to t) in Sprague-Dawley rat at 10 mg/kg, po by LC-MS analysis. It is filed as ADME, organism-based. More on the design: dose 10 mg/kg, route po. The note with it: in vivo.
The nature of series [15]: Half life in Sprague-Dawley rat at 10 mg/kg, po by LC-MS analysis. Format: ADME, organism-based. The note with it: in vivo.
Series [16] can be described thus: MRTlast in Sprague-Dawley rat at 10 mg/kg, po by LC-MS analysis. It is filed as ADME, organism-based. The note with it: in vivo.
Series [17] is described as follows: Tmax in Sprague-Dawley rat at 10 mg/kg, po by LC-MS analysis. Format: ADME, organism-based. The note with it: in vivo.
Series [18] deals with Hepatocyte. Kind of series: Cytotoxicity against human primary hepatocytes assessed as cell viability at 1 to 100 uM incubated for 24 hrs by WST-1 assay. The following applies: dose 1-100 µM. Format: toxicity, cell-based. A general note: Tetrazolium dyes change colour on reduction, which living cells bring about.
In series [19] the test system is Hepatocyte. The experiment in a line: Disruption of plasma membrane integrity in human primary hepatocytes assessed as LDH release in cytosol upto 100 uM incubated for 24 hrs by absorbance based assay. Format: toxicity, cell-based. (In general: LDH leaks from cells whose membrane has failed.)
In series [20] the test system is Hepatocyte. The experiment in a line: Disruption of plasma membrane integrity in rat primary hepatocytes assessed as LDH release in cytosol at 100 uM incubated for 24 hrs by absorbance based assay. It is filed as toxicity, cell-based.

Sequence of Free fatty acid receptor 1 (O14842 whole entry): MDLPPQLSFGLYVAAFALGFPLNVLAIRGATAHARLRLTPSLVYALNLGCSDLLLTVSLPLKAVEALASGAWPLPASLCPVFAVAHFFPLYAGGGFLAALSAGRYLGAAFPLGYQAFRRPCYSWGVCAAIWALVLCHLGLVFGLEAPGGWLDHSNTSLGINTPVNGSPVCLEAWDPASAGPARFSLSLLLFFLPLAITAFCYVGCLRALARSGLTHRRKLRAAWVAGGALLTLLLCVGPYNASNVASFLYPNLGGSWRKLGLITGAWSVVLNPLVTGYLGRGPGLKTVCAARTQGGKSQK
Sequence of GPR40-Galpha16 (O14842 whole entry): as above
Sequence of GPR40-Galpha16 (P30679 whole entry): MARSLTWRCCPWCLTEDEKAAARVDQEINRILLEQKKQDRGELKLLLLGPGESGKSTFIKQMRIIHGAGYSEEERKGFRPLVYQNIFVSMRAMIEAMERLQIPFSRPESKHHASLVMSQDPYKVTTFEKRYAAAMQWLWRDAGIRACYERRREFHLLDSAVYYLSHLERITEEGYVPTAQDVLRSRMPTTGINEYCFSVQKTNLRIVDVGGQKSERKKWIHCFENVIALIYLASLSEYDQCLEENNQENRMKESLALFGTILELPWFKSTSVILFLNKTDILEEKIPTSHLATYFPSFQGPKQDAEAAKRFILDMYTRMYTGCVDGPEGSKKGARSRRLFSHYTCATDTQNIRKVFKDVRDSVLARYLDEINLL

For the compound `CC#C[C@H](CC(=O)O)c1ccc(OCc2ccc(-c3cccc(OC)c3)cc2)cc1`, the EC50 in series [1] came out at 93.3 nM.

With `Cc1cccc(C)c1-c1cccc(COc2ccc(S(=O)(=O)CC(=O)O)cc2)c1`, in [2], the EC50 was 252 nM. For the same compound, the “inhibition (INH)” value in [3] was “Dose-Dependent Effect”.

`Cc1cccc(C)c1-c1cccc(COc2ccc([S@@+]([O-])CC(=O)O)cc2)c1`: the figures for the half-life in [4], in series [10] and in series [15] were 3.82 h, 1.9 h and 3.2 h, respectively. The microsomal CLint in [5] is 6.3 µL/min/mg. Further, in series [6], the t1/2 turned out to be 6.3 min. In addition, the CLH in [7] amounted to 8.8 µL/min/mg. Also, the Cmax in series [8] worked out at 858 ng/mL; in [13], 1230 ng/mL. In addition, the AUC(0-t) in series [9] came to 871 ng·h/mL; in series [14], 7620 ng·h/mL. Further, the MRT last was 1.7 h in series [11] and 4.5 h in series [16]. The compound further showed a bioavailability in [12] of 87.5%. Also, the Tmax in [17] was found to be 2 h. The Activity entry in series [18] was “Non-Toxic”; in [19] it was “Non-Toxic”; in series [20], “Toxic”.

Turning to `Cc1cccc(C)c1-c1ccc(COc2ccc(S(=O)(=O)CC(=O)O)cc2)cc1`, in series [2], the EC50 is 716 nM.

Consider `Cc1ccccc1C#Cc1ccc(S(=O)(=O)CC(=O)O)cc1`, for which the EC50 in [2] came out at 4880 nM.

In the case of `COc1ccc(F)c(-c2cccc(COc3ccc(S(=O)(=O)CC(=O)O)cc3)c2)c1`, the EC50 in series [2] was 2900 nM.

As to `Cc1cc(OCCCN2CCOCC2)cc(C)c1-c1cccc(COc2ccc([S+]([O-])CC(=O)O)cc2)c1` (racemic), in series [2], the EC50 worked out at 66.7 nM.

As for `Cc1cnccc1-c1cccc(COc2ccc([S+]([O-])CC(=O)O)cc2)c1` (racemic), the EC50 in series [2] stood at 2000 nM.

In the case of `Cc1noc(C)c1-c1cccc(COc2ccc([S+]([O-])CC(=O)O)cc2)c1` (racemic), the EC50 in series [2] was 5380 nM.

As to `Cc1cncc(C)c1-c1cccc(COc2ccc([S+]([O-])CC(=O)O)cc2)c1` (racemic), the EC50 in series [2] was found to be 3100 nM.

`O=C(O)C[S+]([O-])c1ccc(OCc2cccc(-c3ccncc3Cl)c2)cc1` (racemic): the EC50 in [2] worked out at 1000 nM.

Regarding `Cc1cc(OCC2(C)COC2)cc(C)c1-c1cccc(COc2ccc([S+]([O-])CC(=O)O)cc2)c1` (racemic), the EC50 in series [2] stood at 62.8 nM.

Regarding `Cc1cccc(C)c1-c1ccc(COc2ccc([S+]([O-])CC(=O)O)cc2)cc1` (racemic), in [2], the EC50 was found to be 454 nM.

For `CCCCC/C=C\C/C=C\CCCCCCCC(=O)O` [LINOLEIC ACID], the EC50 worked out at 6040 nM in [2] and 10100 nM in [1].
